# Test results published in patent US20210116467A1, “DIABETES-RELATED BIOMARKERS AND TREATMENT OF DIABETES-RELATED CONDITIONS” (priority 2015, published 2021).
# Tested on: GLP1
# Experiment: GLP1 production induced by treatment with bile acids (immunofluorescence staining of TGR5 and GLP1 in CCL-241 cells)
# Format: cell-based
# Conditions: CCL-241 human small intestinal normal epithelial cells; 100 μM bile acid; compared to wild type (WT) and DMSO controls; FIG. 13
# Method: Several bile acids were tested for their ability to increase production of GLP-1. Without being bound by theory, the inventor believes that compounds which increase the production of GLP-1 provide an anti-diabetic effect.
# CCL-241, a human small intestinal normal epithelial cell were treated with 100 μM of different bile acids and compared to that of wild type (WT) and DMSO treatment as controls. The expression of TGR5 and GLP1 were detected by Immunofluorescence staining.
row,SMILES,GLP1-promotion effect (expression of GLP1 detected by immunofluorescence staining)
1,C[C@H](CCC(=O)O)[C@H]1CC[C@H]2[C@@H]3CC[C@@H]4C[C@H](O)CC[C@]4(C)[C@H]3C[C@H](O)[C@]12C [DCA],substantial GLP-1 promotion effect
2,"C[C@H](CCC(=O)NCC(=O)O)[C@H]1CC[C@H]2[C@@H]3C[C@H](O)[C@@H]4C[C@H](O)CC[C@]4(C)[C@H]3CC[C@]12C [GHDCA, Glycohyodeoxycholic acid]",strongest GLP1-promotion effect
3,"C[C@H](CCC(=O)O)[C@H]1CC[C@H]2[C@@H]3[C@H](O)[C@H](O)[C@@H]4C[C@H](O)CC[C@]4(C)[C@H]3CC[C@]12C [HCA, Hyocholic acid]",strongest GLP1-promotion effect
4,"C[C@H](CCC(=O)O)[C@H]1CC[C@H]2[C@@H]3C[C@H](O)[C@@H]4C[C@H](O)CC[C@]4(C)[C@H]3CC[C@]12C [HDCA, Hyodeoxycholic acid]",strongest GLP1-promotion effect
5,O=C(O)C(Cl)(Cl)Cl [TCA],substantial GLP-1 promotion effect
6,"C[C@H](CCC(=O)NCCS(=O)(=O)[O-])[C@H]1CC[C@H]2[C@@H]3C[C@H](O)[C@@H]4C[C@H](O)CC[C@]4(C)[C@H]3CC[C@]12C.[Na+] [THDCA, Taurohyodeoxycholic acid]",strongest GLP1-promotion effect
